According to patent US20250064846A1, “TREATMENT AND PREVENTION OF TRIGEMINAL NEURALGIA” (THE JOHNS HOPKINS UNIVERSITY, priority 2022, published 2025):
Entries after “also recorded” stand apart in the source; their conditions may differ.

Assays:
[1] = tested on: NRF2; assay: NRF2/ARE Luciferase Reporter Assay (HEK293 stable cell line); assay type: cell-based, human; conditions: 6 hrs exposure to varying concentrations, relative to vehicle, normalized to total protein
Procedure: NRF2/ARE Luciferase Reporter Assay NRF2 activity was monitored with a reporter cell line in which changes in NRF2 activity are coupled to the expression of firefly luciferase (NRF2/ARE Luciferase Reporter HEK293 Stable Cell Line). Luciferase activity was quantified with the Luciferase Assay System as per the manufacturer's instructions. Briefly, cells were plated at 125,000 cells/well in a 24-well plate. The following day, cells were treated with either vehicle or varying doses of sulforaphane, exemestane, or JQ-1 for 6 hours. Cells were then lysed in passive lysis buffer (Promega E1941) supplemented with protease inhibitors (Sigma). Lysates were then cleared at 16,000 g for 15 minutes at 4° C. 15 μL of each lysate was mixed with 5 μL of luciferase assay substrate (Promega). Total light was measured using a luminometer with a 10 second integration time with a delay of 2 seconds. Luciferase measurements were normalized to total protein and reported as normalized to the vehicle condition.

[2] = tested on: constrictive mouse model of trigeminal neuralgia; assay: Cold allodynia (ice-cold acetone) after constriction of the maxillary nerve; assay type: in vivo; conditions: for cold allodynia (ice-cold acetone): WT mice, i.p. daily for two days before surgery and daily after behavior testing, sulforaphane, exemestane, letrozole 10 mg/kg, JQ-1 40 mg/kg, ascorbate 100 mg/kg, vs vehicle
Procedure: Constriction of the Maxillary Nerve Constriction of the maxillary division of trigeminal nerve was performed as previously described (See Benedetti, A., et al., Biochimica Et Biophysica Acta Bba—Lipids Lipid Metabolism 620, 281-296 (1980) and Vos, B., et al J Neurosci 14, 2708-2723 (1994)). The procedure was performed under direct visualization and control with a surgical microscope. Mice were first anesthetized with ketamine (100 mg/kg, i.p.) and xylazine (12.5 mg/kg, i.p.) and monitored by pinching the skin between the toes with forceps and monitoring for withdrawal. Mice were restrained with adhesive tape to a sterilized polystyrene board. Upon sufficient anesthesia, the scalp was shaved and an anterior to posterior skin incision was made at the midline to expose the nasal and maxillary bones. The maxillary nerve was exposed and carefully dissected free from the surrounding connective tissue. The distal end of the maxillary nerve was then loosely constricted using 8-0 silk sutures as a ligature. The sutures were tied using a slip knot followed by a normal knot, after which any remaining suture was cut free. The incision was then closed with a 4-0 silk suture. In the sham procedure, the left maxillary nerve was exposed but not constricted. Mice were monitored and rehydrated until fully recovered from anesthesia.
Pharmacologic Treatments Mice were dosed with either sulforaphane (10 mg/kg, i.p.), exemestane (10 mg/kg, i.p.), letrozole (10 mg/kg, i.p.), (+)-JQ-1 (40 mg/kg, i.p.), (−)-JQ-1 (40 mg/kg, i.p.), or ascorbate (100 mg/kg, i.p.) as indicated below. Mice were first dosed daily for two days before surgery and again daily just after behavior testing. For local exemestane treatment, exemestane (5 μL, 25 μg total) was applied directly to the maxillary nerve. Mice received a single dose during surgery. Mice were dosed with AM-0902 (30 mg/kg, p.o.). Mice were treated with AM-0902 were dosed 30 min prior to behavior testing. Mice were dosed with tamoxifen (75 mg/kg, i.p.). Mice were dosed once every 24 hrs over 5 consecutive days. Behavioral and molecular tests were only performed 7 or more days after the final tamoxifen injection.
Cold Allodynia Cold allodynia was assessed in C57BL/6J, TRPA1^+/+, TRPA1^−/−, Keap1(f/f), and Keap1(f/f)/CMV-CreER mice using ice-cold acetone as previously outlined (See Yoon, C., et al., Pain 59, 369-376 (1994)). Animals were placed individually in transparent plastic boxes and allowed to acclimatize to the environment for at least 30 min before testing. After habituation, 20 μl of cold acetone was applied to the ligated vibrissal pad skin surface. Cold allodynia was measured as the average time spent wiping the region in a 60 s period, with a maximum of 5 seconds between bouts of wiping. Allodynia was measured three times with 10 min between intervals. Changes in cold allodynia were considered relative to sham- or vehicle-treated animal controls. Behavior was assessed concomitantly or in a blocked manner with consideration for both genotype and treatment.

[3] = tested on: NRF2; assay: NRF2 stability, ubiquitination and nuclear translocation in HEK-293 cells overexpressing FLAG-KEAP1 and myc-NRF2; assay type: cell-based; conditions: for stabilization of NRF2 / nuclear translocation of NRF2: 10 μM for 6 hours; for nuclear translocation of NRF2: nuclear myc-NRF2 vs vehicle; for inhibition of NRF2 ubiquitination: HEK-293 cells overexpressing FLAG-KEAP1, myc-NRF2 and HA-ubiquitin
Procedure: To determine a ratio of KFAP1 to NRF2 cDNA that best mimics baseline NRF2 activity, luciferase activity was measured 48 h after transfection with varying ratios of KEAP1 to NRF2 cDNA, normalized to total protein (FIG. 21A). Luciferase expression is controlled by a promoter that contains several NRF2 binding sites and is thus a measure of NRF2 activity. A 2.5 μg KFAP1 to 1 μg NRF2 cDNA ratio returned luciferase activity to baseline and was therefore employed for subsequent biochemical studies evaluating NRF2 stability and nuclear translocation. FIGS. 21B and 21C show the quantification (FIG. 21B) and immunoblots (FIG. 21C) of myc-NRF2, GAPDH, and H2B in whole cell lysates and cytoplasmic and nuclear subcellular fractions of HEK-293 cells overexpressing FLAG-KEAP1 and myc-NRF2, treated with vehicle, 10 μM MG-132, 10 μM sulforaphane (SF), 10 μM exemestane, or 10 μM JQ-1 for 6 hours. Data are expressed as a normalized ratio of nuclear myc-NRF2 compared to the vehicle-treated condition. FIG. 21D is immunoblots of lysates (input) and myc immunoprecipitate (IP) from HEK-293 cells overexpressing FLAG-KEAP1, myc-NRF2, and HA-ubiquitin. Data are either representative of or quantified from n=3 independent experiments except in FIG. 21A, where n=1 in triplicate. In FIG. 21A, mean f SEM depicted. In FIG. 21B, median and range depicted. *=P<0.05 and ns=P>0.05 by one-way ANOVA followed by post-hoc Dunnett's test.

[4] = tested on: constrictive mouse model of trigeminal neuralgia; assay: Cold allodynia (ice-cold acetone) after constriction of the maxillary nerve; assay type: in vivo; conditions: i.p. daily, sulforaphane 10 mg/kg; for cold allodynia (analgesic effect): NRF2−/− mice, exemestane 10 mg/kg, JQ-1 40 mg/kg

| Compound | luciferase expression in the NRF2 reporter line [1] | cold allodynia (ice-cold acetone) [2] | cold allodynia ([2]; single local treatment, exemestane 25 μg/site applied directly to the maxillary nerve during surgery) | stabilization of NRF2 [3] | nuclear translocation of NRF2 [3] | inhibition of NRF2 ubiquitination [3] | cold allodynia (analgesic effect) [4] | cold allodynia (ice-cold acetone) ([2]; listed as (+)-JQ-1) | cold allodynia ([4]; TRPA1−/− mice, compared with genetic deletion of TRPA1 alone) |
| --- | --- | --- | --- | --- | --- | --- | --- | --- | --- |
| C=C1C[C@@H]2[C@H](CC[C@]3(C)C(=O)CC[C@@H]23)[C@@]2(C)C=CC(=O)C=C12 [exemestane, 6-methylenandrosta-1,4-diene-3,17-dione] | similarly increased luciferase expression | much less sensitive; also recorded: lowered | lessened | both sulforaphane and exemestane do | promote nuclear translocation of NRF2 | both sulforaphane and exemestane do | lose their analgesic effects |  |  |
| Cc1sc2c(c1C)C(c1ccc(Cl)cc1)=N[C@@H](CC(=O)OC(C)(C)C)c1nnc(C)n1-2 [JQ-1, (S)-tert-butyl 2-(4-(4-chlorophenyl)-2,3,9-trimethyl-6H-thieno[3,2-f][1,2,4]triazolo[4,3-a][1,4]diazepin-6-yl)acetate] | did not stimulate luciferase expression | much less sensitive |  | neither stabilizes NRF2 | does not | nor inhibits its ubiquitination | lowers | lowered |  |
| C[S+]([O-])CCCCN=C=S (stereo not drawn) [sulforaphane, 1-isothiocyanato-4-(methanesulfinyl)butane] | dose-dependently increased luciferase expression | less sensitive |  | both sulforaphane and exemestane do | promote nuclear translocation of NRF2 | both sulforaphane and exemestane do | lose their analgesic effects |  | did not lower |
